The values that follow come from ChEMBL document CHEMBL1212865, “New porphyrin amino acid conjugates: synthesis and photodynamic effect in human epithelial cells” (Bioorg Med Chem, 2010).

Active and inactive are the calls of the source. The rule behind the calls is not given here.

Series [1] relates to HaCaT. Nature of the series: Phototoxicity against human HaCaT cells assessed as surviving fraction at 0.3 uM irradiated with 9.15 mW/cm'2 light for 15 mins by MTT assay. Type of series: functional.
The subject of series [2] is HaCaT. Nature of the series: Phototoxicity against human HaCaT cells assessed as surviving fraction at 12 uM under LED array light. Format: functional.
In series [3] the test system is HeLa. Nature of the series: Phototoxicity against human HeLa cells assessed as surviving fraction at 0.3 uM irradiated with 9.15 mW/cm'2 light for 15 mins by MTT assay. Type of series: functional.
Series [4] deals with HaCaT. Kind of series: Induction of apoptosis in human HaCaT cells assessed as change in loss of adheshin after irradiation with 9.15 mW/cm'2 light for 10 mins. Format: functional, cell-based.
Series [5] concerns HaCaT. Nature of the series: Phototoxicity against human HaCaT cells assessed as surviving fraction at 0.3 uM irradiated with 9.15 mW/cm'2 light for 10 mins by MTT assay. Format: functional. On the technique in general: Tetrazolium assays rely on reduction of a dye to a coloured formazan, in cell work by metabolically active cells.
Series [6] concerns HeLa. Nature of the series: Phototoxicity against human HeLa cells assessed as surviving fraction at 2.4 uM under LED array light. Type of series: functional.
Series [7] has as its system HaCaT. Nature of the series: Phototoxicity against human HaCaT cells assessed as surviving fraction at 0.61 uM under LED array light by MTT assay. Type of series: functional.
The test system of series [8] is HeLa. Kind of series: Phototoxicity against human HeLa cells assessed as survival at 0.3 uM irradiated with 9.15 mW/cm'2 light for 10 mins by MTT assay.
For series [9], the system named is HeLa. Nature of the series: Phototoxicity against human HeLa cells assessed as surviving fraction at 0.61 uM under LED array light. Type of series: functional.
For series [10], the system named is HaCaT. Kind of series: Phototoxicity against human HaCaT cells assessed as surviving fraction at 1.2 uM under LED array light. Type of series: functional.
Series [11] relates to HeLa. Nature of the series: Phototoxicity against human HeLa cells assessed as surviving fraction at 0.3 uM irradiated with 9.15 mW/cm'2 light for 5 mins by MTT assay. Format: functional.
In series [12] the test system is HeLa. Nature of the series: Induction of apoptosis in human HeLa cells assessed as intracellular localization at 0.25 uM with 9.15 mW/cm'2 light for. Format: functional, cell-based. As to conditions: TDE = time-dependent effect.
Series [13] relates to HaCaT. Nature of the series: Induction of apoptosis in human HaCaT cells assessed as change in loss of basophilia after irradiation with 9.15 mW/cm'2 light for 10 mins. Type of series: functional, cell-based.
Series [14] concerns HaCaT. Nature of the series: Induction of apoptosis in human HaCaT cells assessed as intracellular localization at 0.3 uM with 9.15 mW/cm'2 light for. Format: functional, cell-based. As to conditions: TDE = time-dependent effect.
Series [15] deals with HeLa. Kind of series: Phototoxicity against human HeLa cells assessed as surviving fraction at 12 uM under LED array light by MTT assay. Format: functional.
Series [16] deals with HeLa. Nature of the series: Phototoxicity against human HeLa cells assessed as surviving fraction at 1.2 uM under LED array light. Format: functional.
Series [17] has as its system HaCaT. Nature of the series: Induction of apoptosis in human HaCaT cells assessed as change in cytoplasmic vacuolization after irradiation with 9.15 mW/cm'2 light for 10 mins. Format: functional, cell-based.
Series [18] has as its system HaCaT. Nature of the series: Phototoxicity against human HaCaT cells assessed as surviving fraction at 0.3 uM irradiated with 9.15 mW/cm'2 light for 5 mins by MTT assay. Type of series: functional.
Series [19] concerns HaCaT. Nature of the series: Phototoxicity against human HaCaT cells assessed as surviving fraction at 2.4 uM under LED array light. Type of series: functional.
The test system of series [20] is HaCaT. Kind of series: Phototoxicity against human HaCaT cells assessed as surviving fraction at 0.22 uM under LED array light by MTT assay. Type of series: functional.
Series [21] deals with HeLa. Kind of series: Phototoxicity against human HeLa cells assessed as surviving fraction at 0.3 uM irradiated with 9.15 mW/cm'2 light for 10 mins by MTT assay. Format: functional.
Series [22] deals with HeLa. Kind of series: Phototoxicity against human HeLa cells assessed as surviving fraction at 0.22 uM under LED array light. Type of series: functional.
In series [23] the test system is HeLa. Nature of the series: Phototoxicity against human HeLa cells assessed as surviving fraction at 0.25 uM irradiated with 9.15 mW/cm'2 light for 20 mins by MTT assay. Format: functional.
Series [24] is described as follows: Photostability of the compound irradiated with 9.15 mW/cm'2 white light. Type of series: physicochemical.
Series [25] relates to HeLa. Nature of the series: Phototoxicity against human HeLa cells assessed as surviving fraction at 0.25 uM irradiated with 9.15 mW/cm'2 light for 5 mins by MTT assay. Format: functional.
Series [26] deals with HaCaT. Kind of series: Phototoxicity against human HaCaT cells assessed as surviving fraction at 0.25 uM irradiated with 9.15 mW/cm'2 light for 20 mins by MTT assay. Format: functional.
For series [27], the system named is HaCaT. Kind of series: Induction of apoptosis in human HaCaT cells assessed as change in cellular morphology after irradiation with 9.15 mW/cm'2 light. Format: functional, cell-based.
Series [28] deals with HaCaT. Nature of the series: Induction of apoptosis in human HaCaT cells assessed as intracellular localization at 0.25 uM with 9.15 mW/cm'2 light for. As to conditions: TDE = time-dependent effect. Type of series: functional, cell-based.
In series [29] the test system is HeLa. Kind of series: Phototoxicity against human HeLa cells assessed as survival at 0.25 uM irradiated with 9.15 mW/cm'2 light for 10 mins by MTT assay.
The subject of series [30] is HaCaT. Nature of the series: Phototoxicity against human HaCaT cells assessed as surviving fraction at 0.25 uM irradiated with 9.15 mW/cm'2 light for 5 mins by MTT assay. Type of series: functional.
The test system of series [31] is HaCaT. Nature of the series: Phototoxicity against human HaCaT cells assessed as surviving fraction at 0.25 uM irradiated with 9.15 mW/cm'2 light for 10 mins by MTT assay. Type of series: functional.
For series [32], the system named is HeLa. Nature of the series: Phototoxicity against human HeLa cells assessed as surviving fraction at 0.25 uM irradiated with 9.15 mW/cm'2 light for 10 mins by MTT assay. Type of series: functional.
Series [33] deals with HeLa. Kind of series: Phototoxicity against human HeLa cells assessed as surviving fraction at 1.2 uM irradiated with 9.15 mW/cm'2 light for 10 mins by MTT assay. Type of series: functional.
Series [34] can be described thus: Induction of singlet oxygen production at 1 uM after irradiation at 10 mW/cm'2 in presence of 1,3-diphenylisobenzofuran. Type of series: physicochemical.
In series [35] the test system is HeLa. Kind of series: Phototoxicity against human HeLa cells assessed as surviving fraction at 1.2 uM irradiated with 9.15 mW/cm'2 light for 20 mins by MTT assay. Format: functional.
Series [36] concerns HaCaT. Kind of series: Phototoxicity against human HaCaT cells assessed as surviving fraction at 1.2 uM irradiated with 9.15 mW/cm'2 light for 10 mins by MTT assay. Type of series: functional.
The test system of series [37] is HeLa. Kind of series: Phototoxicity against human HeLa cells assessed as survival at 1.2 uM irradiated with 9.15 mW/cm'2 light for 10 mins by MTT assay.
Series [38] concerns HaCaT. Nature of the series: Phototoxicity against human HaCaT cells assessed as surviving fraction at 1.2 uM irradiated with 9.15 mW/cm'2 light for 20 mins by MTT assay. Format: functional.
The test system of series [39] is HaCaT. Nature of the series: Induction of apoptosis in human HaCaT cells assessed as intracellular localization at 1.2 uM with 9.15 mW/cm'2 light for. Type of series: functional, cell-based. As to conditions: TDE = time-dependent effect.
Series [40] relates to HeLa. Nature of the series: Phototoxicity against human HeLa cells assessed as surviving fraction at 1.2 uM irradiated with 9.15 mW/cm'2 light for 5 mins by MTT assay. Type of series: functional.

On to `COC(=O)C(CC[S+](C)[O-])NC(=O)c1ccc(-c2c3nc(c(-c4cccc(OC)c4)c4ccc([nH]4)c(-c4cccc(OC)c4)c4nc(c(-c5cccc(OC)c5)c5ccc2[nH]5)C=C4)C=C3)cc1` (configuration not stated), for which the Activity in the series on HaCaT [1] is listed as 28.2%; in the series with HaCaT [2], 16.9%; in the series with HeLa [3], 10.93%; in the series with HaCaT [5], 53.02%; in the series with HeLa [6], 93.5%; in the series on HaCaT [7], 101.5%. Also, the Activity is 92.61% in the series on HeLa [9]; 103.4% in the series on HaCaT [10]; 56.87% in the series with HeLa [11]; “tde” with HeLa [12]; “tde” with HaCaT [14]; 16.93% with HeLa [15]. Besides, the Activity in the series on HeLa [16] stood at 95.69%; in the series on HaCaT [18] it was 76.87%; with HaCaT [19], 101.3%; in the series on HaCaT [20] it was 99.2%; with HeLa [21], 14.23%; with HeLa [22], 93.26%. Besides, the outcome in the series with HaCaT [4], in the series with HaCaT [13] and in the series on HaCaT [17] was Active. Further, in the series on HeLa [8], the Survival is recorded as 53.02%.

Turning to `COC(=O)CNC(=O)c1ccc(-c2c3nc(c(-c4cccc(OC)c4)c4ccc([nH]4)c(-c4cccc(OC)c4)c4nc(c(-c5cccc(OC)c5)c5ccc2[nH]5)C=C4)C=C3)cc1`, the Activity in the series on HaCaT [2] is listed as 24.3%; with HeLa [6] it was 104.89%; in the series with HaCaT [7], 97.96%; with HeLa [23] it was 1.32%; in the series on HeLa [9], 110.38%; with HeLa [25] it was 3.74%. The Activity in the series with HaCaT [26] is 22.11%; with HaCaT [10] it was 102.19%; in the series on HaCaT [28], “tde”; in the series with HeLa [15], 60.42%; in the series on HeLa [16] it was 106.97%; with HaCaT [30], 82.69%. Also, the Activity with HaCaT [31] came out at 50.96%; in the series with HeLa [32], 1.13%; in the series on HaCaT [19], 109.91%; in the series with HaCaT [20] it was 94.98%; in the series with HeLa [22], 107.31%. For the same compound, the Stability entry in [24] is listed as “Stable”. The outcome in the series on HaCaT [27] was Active. The Survival in the series on HeLa [29] was determined as 50.96%.

As for `COC(=O)C(CO)NC(=O)c1ccc(-c2c3nc(c(-c4cccc(OC)c4)c4ccc([nH]4)c(-c4cccc(OC)c4)c4nc(c(-c5cccc(OC)c5)c5ccc2[nH]5)C=C4)C=C3)cc1` (configuration not stated), the Activity in the series on HeLa [33] was 0%; in series [34], “Active”; with HaCaT [2], 96.98%; in the series with HeLa [35] it was 0%; with HeLa [6], 91.48%; in the series with HaCaT [36] it was 42.75%. For the same compound, the Activity is 104.72% in the series on HaCaT [7]; 100.28% in the series on HeLa [9]; 102.65% with HaCaT [10]; “tde” in the series on HeLa [12]; 67.33% in the series on HeLa [15]; 102.78% with HeLa [16]. Moreover, the Activity in the series with HaCaT [38] was 22.54%; in the series with HaCaT [39], “tde”; in the series on HaCaT [19] it was 97.54%; in the series on HeLa [40], 8%; in the series with HaCaT [20] it was 101.49%; in the series on HeLa [22], 102.58%. The result in the series with HaCaT [27] was Active. Besides, the Survival in the series with HeLa [37] is reported as 42.75%.
